# According to publication PMC6688997 (Nature Communications, 2019):
# Read-outs that look alike come from different tables or passages of the source.
# Tests used:
# [1] = system: Ba/F3 TPM3-NTRK1 G667C cells; experiment: CellTiter-Glo cell viability assay; assay type: cell-based, murine; conditions: 72 h
# [2] = system: SLC34A2-ROS1-WT overexpressing HCC78xe3 cells; experiment: Cell viability in 3D culture, CellTiter-Glo; assay type: cell-based; conditions: 72 h
# [3] = system: HCC78xe3-SLC34A2-ROS1-WT xenograft; assay type: in vivo, mouse; conditions: for Mean tumor volume of group (mice 25-30): 100mg/kg, BALB/c-nu, left block; for Tumor volume LWW/2: DS6051b 100mg/kg, in mm³
# [4] = PK profile, plasma concentration by LC-MS/MS; assay type: in vivo, nude mice; conditions: single administration of 100 mg/kg
# Description: PK profile of DS-6051b as a free base in nude mice The indicated dose of DS-6051b as a free base was administered to nude mice. Blood samples were collected at 2, 6 and 24 h post-dosing and centrifuged to separate the supernatant as plasma. […] Results are indicated as mean ± SD of the concentration of each group (N = 3).
# JAK2 = molecular target: T1, JAK2 (Homo sapiens, UniProt O60674); experiment: Kinase assay, ATP Km; assay type: biochemical
# T1 construct: purchased Carna Biosciences
# T1 sequence (O60674 whole entry): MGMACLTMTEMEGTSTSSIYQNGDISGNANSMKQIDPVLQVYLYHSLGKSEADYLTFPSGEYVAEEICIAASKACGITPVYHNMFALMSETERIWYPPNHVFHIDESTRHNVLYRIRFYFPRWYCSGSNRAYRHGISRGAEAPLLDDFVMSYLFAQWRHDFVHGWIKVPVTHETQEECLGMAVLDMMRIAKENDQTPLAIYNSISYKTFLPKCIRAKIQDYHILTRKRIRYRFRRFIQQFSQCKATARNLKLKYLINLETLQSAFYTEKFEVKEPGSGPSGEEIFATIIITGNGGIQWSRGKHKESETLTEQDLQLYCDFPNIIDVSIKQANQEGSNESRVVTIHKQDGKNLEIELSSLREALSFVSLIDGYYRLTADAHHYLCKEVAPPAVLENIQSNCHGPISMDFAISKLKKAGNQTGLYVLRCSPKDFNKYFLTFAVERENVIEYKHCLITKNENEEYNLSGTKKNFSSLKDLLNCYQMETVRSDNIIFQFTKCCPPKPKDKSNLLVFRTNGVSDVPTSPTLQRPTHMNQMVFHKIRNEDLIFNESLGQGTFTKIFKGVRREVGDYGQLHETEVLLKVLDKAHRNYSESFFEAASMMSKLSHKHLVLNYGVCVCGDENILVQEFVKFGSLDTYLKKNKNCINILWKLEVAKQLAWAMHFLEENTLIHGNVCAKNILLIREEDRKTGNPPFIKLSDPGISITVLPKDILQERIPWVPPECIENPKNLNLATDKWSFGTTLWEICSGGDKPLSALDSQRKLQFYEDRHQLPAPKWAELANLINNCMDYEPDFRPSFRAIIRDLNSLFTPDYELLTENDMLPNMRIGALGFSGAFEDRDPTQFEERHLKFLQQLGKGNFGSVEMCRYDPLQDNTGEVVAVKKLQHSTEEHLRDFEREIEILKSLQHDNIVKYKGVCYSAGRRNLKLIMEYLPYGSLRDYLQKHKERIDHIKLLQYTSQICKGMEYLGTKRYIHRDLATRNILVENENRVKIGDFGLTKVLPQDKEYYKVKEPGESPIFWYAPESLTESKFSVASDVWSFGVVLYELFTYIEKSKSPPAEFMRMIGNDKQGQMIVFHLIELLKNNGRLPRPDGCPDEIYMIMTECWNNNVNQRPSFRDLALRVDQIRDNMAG
# DDR2 = molecular target: T2, DDR2 (Homo sapiens, UniProt Q16832); experiment: Kinase assay, ATP Km; assay type: biochemical
# T2 sequence (Q16832 22-855): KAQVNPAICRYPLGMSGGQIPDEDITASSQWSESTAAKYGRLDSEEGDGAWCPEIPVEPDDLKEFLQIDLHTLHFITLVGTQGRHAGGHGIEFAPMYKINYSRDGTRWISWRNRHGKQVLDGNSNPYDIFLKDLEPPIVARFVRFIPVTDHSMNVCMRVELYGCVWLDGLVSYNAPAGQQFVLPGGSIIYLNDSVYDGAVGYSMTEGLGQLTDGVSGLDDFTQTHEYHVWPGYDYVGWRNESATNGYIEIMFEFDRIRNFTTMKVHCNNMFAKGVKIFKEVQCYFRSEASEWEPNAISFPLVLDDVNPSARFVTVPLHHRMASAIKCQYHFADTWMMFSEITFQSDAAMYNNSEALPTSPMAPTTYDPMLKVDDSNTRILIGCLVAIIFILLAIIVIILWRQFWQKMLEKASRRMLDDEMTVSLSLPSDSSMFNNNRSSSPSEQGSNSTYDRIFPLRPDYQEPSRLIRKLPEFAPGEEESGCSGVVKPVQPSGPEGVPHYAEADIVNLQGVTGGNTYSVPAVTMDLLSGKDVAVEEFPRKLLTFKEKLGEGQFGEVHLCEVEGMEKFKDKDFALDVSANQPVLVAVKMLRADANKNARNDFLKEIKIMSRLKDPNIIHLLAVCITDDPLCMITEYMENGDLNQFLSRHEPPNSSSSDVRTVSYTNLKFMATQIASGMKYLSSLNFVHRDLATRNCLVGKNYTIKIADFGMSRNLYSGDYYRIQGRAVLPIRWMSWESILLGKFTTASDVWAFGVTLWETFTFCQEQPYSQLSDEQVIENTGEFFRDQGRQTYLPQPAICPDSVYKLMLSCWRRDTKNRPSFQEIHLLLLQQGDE
# MST1 = MST1 (Homo sapiens, UniProt Q13043); experiment: Kinase assay, ATP Km; assay type: biochemical
# PKN1 = PKN1 (Homo sapiens, UniProt Q16512); experiment: Kinase assay, ATP Km; assay type: biochemical
# Sequence of PKN1 (Q16512 whole entry): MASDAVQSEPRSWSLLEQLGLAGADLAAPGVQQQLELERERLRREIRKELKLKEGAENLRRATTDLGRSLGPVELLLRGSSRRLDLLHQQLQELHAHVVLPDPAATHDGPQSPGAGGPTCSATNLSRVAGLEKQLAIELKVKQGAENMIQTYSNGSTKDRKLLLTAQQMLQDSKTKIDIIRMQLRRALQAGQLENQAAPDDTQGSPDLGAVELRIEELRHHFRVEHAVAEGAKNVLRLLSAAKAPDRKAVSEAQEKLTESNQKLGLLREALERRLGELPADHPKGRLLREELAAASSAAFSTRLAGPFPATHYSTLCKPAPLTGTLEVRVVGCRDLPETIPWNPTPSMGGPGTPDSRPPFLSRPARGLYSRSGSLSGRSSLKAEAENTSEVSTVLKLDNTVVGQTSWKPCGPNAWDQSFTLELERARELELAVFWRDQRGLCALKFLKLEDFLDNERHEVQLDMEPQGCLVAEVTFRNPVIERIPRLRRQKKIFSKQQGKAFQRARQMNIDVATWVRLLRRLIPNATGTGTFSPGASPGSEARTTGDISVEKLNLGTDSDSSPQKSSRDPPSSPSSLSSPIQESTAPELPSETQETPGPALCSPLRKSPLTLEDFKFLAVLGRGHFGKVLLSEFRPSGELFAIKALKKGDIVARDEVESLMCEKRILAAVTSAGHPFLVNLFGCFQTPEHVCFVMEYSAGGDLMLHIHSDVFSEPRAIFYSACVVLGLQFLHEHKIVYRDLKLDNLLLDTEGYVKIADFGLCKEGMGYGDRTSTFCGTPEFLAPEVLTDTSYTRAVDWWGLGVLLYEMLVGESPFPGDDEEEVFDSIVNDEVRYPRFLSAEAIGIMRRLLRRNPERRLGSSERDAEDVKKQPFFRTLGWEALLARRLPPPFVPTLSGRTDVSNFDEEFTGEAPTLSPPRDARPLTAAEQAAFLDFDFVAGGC
# NDR2 = molecular target: T3, NDR2 (Homo sapiens, UniProt Q9Y2H1); experiment: Kinase assay, ATP Km; assay type: biochemical
# T3 construct: purchased Carna Biosciences
# PKCδ = PKCδ (Homo sapiens, UniProt Q05655); experiment: Kinase assay, ATP Km; assay type: biochemical
# PKCβ1 = PKCβ1 (Homo sapiens, UniProt P05771); experiment: Kinase assay, ATP Km; assay type: biochemical
# CaMK2δ = CaMK2δ (Homo sapiens, UniProt Q13557); experiment: Kinase assay, ATP Km; assay type: biochemical
# MRCKβ = molecular target: T4, MRCKβ (Homo sapiens, UniProt Q9Y5S2); experiment: Kinase assay, ATP Km; assay type: biochemical
# T4 construct: purchased Carna Biosciences
# T4 sequence (Q9Y5S2 whole entry): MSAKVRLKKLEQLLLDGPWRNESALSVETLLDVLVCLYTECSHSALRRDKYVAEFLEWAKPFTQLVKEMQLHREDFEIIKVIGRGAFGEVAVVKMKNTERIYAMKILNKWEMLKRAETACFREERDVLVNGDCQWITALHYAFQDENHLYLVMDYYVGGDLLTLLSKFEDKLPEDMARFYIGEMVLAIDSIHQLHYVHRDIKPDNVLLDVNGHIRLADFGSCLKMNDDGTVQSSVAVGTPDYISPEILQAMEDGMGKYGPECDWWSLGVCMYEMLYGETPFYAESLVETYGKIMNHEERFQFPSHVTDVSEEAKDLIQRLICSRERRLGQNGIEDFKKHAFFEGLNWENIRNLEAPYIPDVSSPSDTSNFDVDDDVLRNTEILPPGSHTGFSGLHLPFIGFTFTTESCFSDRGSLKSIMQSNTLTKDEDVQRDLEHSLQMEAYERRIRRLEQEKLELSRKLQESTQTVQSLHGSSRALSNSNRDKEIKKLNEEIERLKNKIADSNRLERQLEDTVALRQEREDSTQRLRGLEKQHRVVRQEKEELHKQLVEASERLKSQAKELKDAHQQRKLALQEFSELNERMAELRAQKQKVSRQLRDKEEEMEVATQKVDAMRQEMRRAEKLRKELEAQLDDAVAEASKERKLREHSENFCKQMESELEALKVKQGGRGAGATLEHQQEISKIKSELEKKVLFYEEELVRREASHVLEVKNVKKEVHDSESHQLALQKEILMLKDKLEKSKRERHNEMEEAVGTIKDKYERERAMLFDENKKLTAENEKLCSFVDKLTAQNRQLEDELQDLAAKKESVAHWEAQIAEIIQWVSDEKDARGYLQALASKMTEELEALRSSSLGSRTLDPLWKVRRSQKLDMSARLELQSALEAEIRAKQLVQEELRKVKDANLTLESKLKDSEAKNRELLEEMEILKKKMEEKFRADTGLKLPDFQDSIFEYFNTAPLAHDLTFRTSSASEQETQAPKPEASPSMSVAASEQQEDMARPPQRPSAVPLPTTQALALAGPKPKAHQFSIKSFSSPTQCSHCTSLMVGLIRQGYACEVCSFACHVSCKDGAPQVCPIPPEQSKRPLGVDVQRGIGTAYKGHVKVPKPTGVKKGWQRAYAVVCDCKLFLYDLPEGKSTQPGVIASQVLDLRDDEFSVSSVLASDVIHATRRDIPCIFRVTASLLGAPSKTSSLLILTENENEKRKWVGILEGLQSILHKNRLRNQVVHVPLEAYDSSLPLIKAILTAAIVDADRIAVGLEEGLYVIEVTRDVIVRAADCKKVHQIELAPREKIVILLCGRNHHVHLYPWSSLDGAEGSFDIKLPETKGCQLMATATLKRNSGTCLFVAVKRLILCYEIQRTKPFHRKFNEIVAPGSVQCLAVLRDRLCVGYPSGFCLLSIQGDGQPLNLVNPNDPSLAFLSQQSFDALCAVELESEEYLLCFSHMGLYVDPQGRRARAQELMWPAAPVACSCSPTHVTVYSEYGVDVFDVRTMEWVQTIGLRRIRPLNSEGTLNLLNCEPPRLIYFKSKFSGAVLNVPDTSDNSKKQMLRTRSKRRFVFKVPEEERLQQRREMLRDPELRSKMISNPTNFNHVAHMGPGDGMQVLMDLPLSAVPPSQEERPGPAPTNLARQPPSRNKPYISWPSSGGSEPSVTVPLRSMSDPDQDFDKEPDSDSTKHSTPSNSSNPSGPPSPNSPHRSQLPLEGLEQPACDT
# PASK = molecular target: T5, PASK (Homo sapiens, UniProt Q96RG2); experiment: Kinase assay, ATP Km; assay type: biochemical
# T5 construct: purchased Carna Biosciences
# NEK2 = NEK2 (Homo sapiens, UniProt P51955); experiment: Kinase assay, ATP Km; assay type: biochemical
# NEK4 = molecular target: T6, NEK4 (Homo sapiens, UniProt P51957); experiment: Kinase assay, ATP Km; assay type: biochemical
# T6 construct: purchased Carna Biosciences
# NEK9 = molecular target: T7, NEK9 (Homo sapiens, UniProt Q8TD19); experiment: Kinase assay, ATP Km; assay type: biochemical
# T7 construct: purchased Carna Biosciences
# T7 sequence (Q8TD19 whole entry): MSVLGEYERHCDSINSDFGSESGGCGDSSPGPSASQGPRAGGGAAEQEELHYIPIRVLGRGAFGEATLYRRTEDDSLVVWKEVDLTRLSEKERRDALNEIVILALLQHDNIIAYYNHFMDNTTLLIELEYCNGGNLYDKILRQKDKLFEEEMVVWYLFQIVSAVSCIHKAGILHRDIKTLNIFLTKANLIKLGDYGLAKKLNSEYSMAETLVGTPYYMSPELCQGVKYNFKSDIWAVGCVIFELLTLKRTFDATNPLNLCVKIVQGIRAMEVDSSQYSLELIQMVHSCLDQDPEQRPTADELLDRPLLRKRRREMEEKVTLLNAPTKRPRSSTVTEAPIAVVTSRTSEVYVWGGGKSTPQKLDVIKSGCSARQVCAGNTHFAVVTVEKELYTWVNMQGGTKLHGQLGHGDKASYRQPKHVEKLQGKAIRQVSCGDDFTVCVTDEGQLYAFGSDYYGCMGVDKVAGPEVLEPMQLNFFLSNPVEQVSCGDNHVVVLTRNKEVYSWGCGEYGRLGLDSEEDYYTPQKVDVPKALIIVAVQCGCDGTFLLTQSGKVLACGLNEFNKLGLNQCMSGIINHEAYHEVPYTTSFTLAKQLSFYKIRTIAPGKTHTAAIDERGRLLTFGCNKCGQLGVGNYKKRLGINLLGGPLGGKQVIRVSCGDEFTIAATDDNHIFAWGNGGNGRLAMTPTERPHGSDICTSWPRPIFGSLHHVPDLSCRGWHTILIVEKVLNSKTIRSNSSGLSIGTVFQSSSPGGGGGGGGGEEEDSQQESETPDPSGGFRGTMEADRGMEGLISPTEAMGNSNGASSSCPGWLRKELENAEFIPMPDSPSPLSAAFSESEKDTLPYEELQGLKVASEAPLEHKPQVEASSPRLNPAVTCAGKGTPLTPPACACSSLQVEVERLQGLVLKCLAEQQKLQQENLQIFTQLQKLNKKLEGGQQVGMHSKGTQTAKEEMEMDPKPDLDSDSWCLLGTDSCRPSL
# CDC7/ASK = molecular target: T8, CDC7/ASK (Homo sapiens, UniProt O00311); experiment: Kinase assay, ATP Km; assay type: biochemical
# T8 construct: purchased Carna Biosciences
# WNK1 = molecular target: T9, WNK1 (Homo sapiens, UniProt Q9H4A3); experiment: Kinase assay, ATP Km; assay type: biochemical
# T9 construct: purchased Carna Biosciences
# MAPKAPK2 = molecular target: T10, MAPKAPK2 (Homo sapiens, UniProt P49137); experiment: Kinase assay, ATP Km; assay type: biochemical
# T10 construct: purchased Carna Biosciences
compound,measurement,setting,value
C[C@@H](N)COc1ccc(-c2cnc3ccc(N[C@H](C)c4cccc(F)c4)nn23)cc1.O=C(O)CCCCC(=O)O [DS-6051b],IC50,[1],resistant
same,Cell growth inhibition,[2],inhibited cell growth
same,Mean tumor volume of group (mice 25-30),"[3]; day 3, HCC78 xenograft",65.4 mm³
same,Mean tumor volume of group (mice 25-30),"[3]; day 6, HCC78 xenograft",42.9 mm³
same,Mean tumor volume of group (mice 25-30),"[3]; day 9, HCC78 xenograft",22.4 mm³
same,Mean tumor volume of group (mice 25-30),"[3]; day 14, HCC78 xenograft",16 mm³
same,Mean tumor volume of group (mice 25-30),"[3]; day 17, HCC78 xenograft",21.3 mm³
same,Mean tumor volume of group (mice 25-30),"[3]; day 21, HCC78 xenograft",15.1 mm³
same,Mean tumor volume of group (mice 25-30),"[3]; day 25, HCC78 xenograft",9.1 mm³
same,Mean tumor volume of group (mice 25-30),"[3]; day 28, HCC78 xenograft",5.8 mm³
same,Mean tumor volume of group (mice 25-30),"[3]; day 31, HCC78 xenograft",8.2 mm³
same,Mean tumor volume of group (mice 25-30),"[3]; day 35, HCC78 xenograft",6.9 mm³
same,Mean tumor volume of group (mice 25-30),"[3]; day 38, HCC78 xenograft",6 mm³
same,Mean tumor volume of group (mice 25-30),"[3]; day 43, HCC78 xenograft",9.1 mm³
same,Mean tumor volume of group (mice 25-30),"[3]; day 48, HCC78 xenograft",4.2 mm³
same,Mean tumor volume of group (mice 25-30),"[3]; day 52, HCC78 xenograft",3.6 mm³
same,Mean tumor volume of group (mice 25-30),"[3]; day 55, HCC78 xenograft",4.9 mm³
same,Tumor growth inhibition,[3]; 50 and 100 mg/kg once daily oral,significant growth inhibition
same,Tumor volume LWW/2,"[3]; day 0, single mouse",189.6
same,Tumor volume LWW/2,"[3]; day 3, single mouse",88.9
same,Tumor volume LWW/2,"[3]; day 6, single mouse",53.5
same,Tumor volume LWW/2,"[3]; day 9, single mouse",31.7
same,Tumor volume LWW/2,"[3]; day 14, single mouse",11.8
same,Tumor volume LWW/2,"[3]; day 17, single mouse",20.3
same,Peak plasma concentration,[4],around 1500 nM
same,inhibition at 0.04 µM,JAK2,97.6%
same,% Inhibition,"JAK2; 0.04μM, ATP Km",potently inhibited
same,inhibition at 0.04 µM,DDR2,93.7%
same,inhibition at 0.04 µM,MST1,80.3%
same,inhibition at 0.04 µM,PKN1,75.4%
same,inhibition at 0.04 µM,NDR2,43.8%
same,inhibition at 0.04 µM,PKCδ,27.6%
same,inhibition at 0.04 µM,PKCβ1,16.8%
same,inhibition at 0.04 µM,CaMK2δ,16.6%
same,inhibition at 0.04 µM,MRCKβ,7.6%
same,inhibition at 0.04 µM,PASK,6.9%
same,inhibition at 0.04 µM,NEK2,6.7%
same,inhibition at 0.04 µM,NEK4,2.8%
same,inhibition at 0.04 µM,NEK9,1.5%
same,inhibition at 0.04 µM,CDC7/ASK,-0.178%
same,inhibition at 0.04 µM,WNK1,-0.3%
same,inhibition at 0.04 µM,MAPKAPK2,-10.2%
